Each compound was assayed against T1, human vasopressin V1a receptor subtype (Homo sapiens, UniProt P37288) (assay: Vasopressin binding in Chinese Hamster Ovary cell membranes expressing human vasopressin V1a subtype receptors). Conditions: 100 nM, CHO cell membranes, [3H]Manning ligand, values without parentheses.
T1 construct: host or cells: CHO cells (pZeoSV vector for the Thibonnier line)
T1 sequence (P37288 whole entry): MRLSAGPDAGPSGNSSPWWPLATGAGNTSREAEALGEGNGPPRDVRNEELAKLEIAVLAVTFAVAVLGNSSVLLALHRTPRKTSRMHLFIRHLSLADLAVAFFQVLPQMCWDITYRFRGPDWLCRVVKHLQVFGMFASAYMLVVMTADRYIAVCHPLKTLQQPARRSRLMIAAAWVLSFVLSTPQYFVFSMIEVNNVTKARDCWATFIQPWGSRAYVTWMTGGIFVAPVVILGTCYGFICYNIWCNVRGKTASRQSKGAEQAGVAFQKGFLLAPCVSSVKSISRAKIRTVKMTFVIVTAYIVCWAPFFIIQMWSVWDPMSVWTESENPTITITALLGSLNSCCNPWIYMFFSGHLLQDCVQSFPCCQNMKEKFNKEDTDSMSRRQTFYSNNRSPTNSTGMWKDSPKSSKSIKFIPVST
Method in brief: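 Membranes from CHO cells expressing human V1a receptor were incubated with [3H]Manning ligand (added as 20 μL of 8 nM) in pH 7.4 Tris buffer with MgCl2, BSA and protease inhibitors, 60 min at room temperature. Bound radioactivity was counted after filtration; values are percent inhibition at a stated concentration or IC50.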
Compound `Cc1cc(C(=O)N2Cc3ccc(C(=O)N4CCN(C(=O)OC(C)(C)C)CC4)n3Cc3ccccc32)ccc1-c1ccccc1C(F)(F)F` [Example 6, 4-[[10,11-Dihydro-10-[[2-methyl-2′-trifluoromethyl[1,1′-biphenyl]-4-yl]carbonyl]-5H-pyrrolo[2,1-c][1,4]benzodiazepin-3-yl]carbonyl]-1-piperazine-carboxylic acid, tert-butyl ester] has an inhibition at 0.1 µM of 2%.
In the case of `COc1ccccc1-c1ccc(C(=O)N2Cc3ccc(C(=O)O)n3Cc3ccccc32)cc1C` [Example 9, 10-[(2′-Methoxy-2-methyl-[1,1′-biphenyl]-4-yl)carbonyl]-10,11-dihydro-5H-pyrrolo[2,1-c][1,4]benzodiazepine-3-carboxylic acid], the inhibition at 0.1 µM is reported as 10%.
`COc1cc2c(cc1OC)N(C(=O)c1ccc(-c3ccccc3C(F)(F)F)c(C)c1)Cc1cccn1C2` [Example 12, 7,8-Dimethoxy-[10,11-dihydro-5H-pyrrolo[2,1-c][1,4]benzodiazepin-10-yl][2-methyl-2′-(trifluoromethyl)[1,1′-biphenyl]-4-yl]methanone] showed an inhibition at 0.1 µM of -10%.
`COc1cc(-c2ccccc2C(F)(F)F)c(Cl)cc1C(=O)N1Cc2ccc(C(=O)O)n2Cc2ccccc21` [Example 15, 10-{[6-Chloro-3-methoxy-2′-trifluoromethyl-[1,1′-biphenyl]-4-yl]carbonyl}-10,11-dihydro-5H-pyrrolo[2,1-c][1,4]benzodiazepine-3-carboxylic acid] was tested, and the inhibition at 0.1 µM was -8%.
For `COc1cccc(-c2cc(OC)c(C(=O)N3Cc4ccc(C(=O)NCCN5CCCCC5)n4Cc4ccccc43)cc2Cl)c1` [Example 156, 10-[(6-Chloro-3,3′-dimethoxy[1,1′-biphenyl]-4-yl)carbonyl]-N-[2-(1-piperidinyl)ethyl]-10,11-dihydro-5H-pyrrolo[2,1-c][1,4]benzodiazepine-3-carboxamide], the inhibition at 0.1 µM was 2%.
`COc1cc(C(=O)N2Cc3ccc(C(=O)NCCN4CCCCC4)n3Cc3ccccc32)ccc1-c1cccc2ccccc12` [Example 157, 10-[3-Methoxy-4-(1-naphthyl)benzoyl]-N-[2-(1-piperidinyl)ethyl]-10,11-dihydro-5H-pyrrolo[2,1-c][1,4]benzodiazepine-3-carboxamide] was tested, and the inhibition at 0.1 µM was 5%.
Work on `COc1ccccc1-c1ccc(C(=O)N2Cc3ccc(C(=O)NCCN4CCCCC4)n3Cc3ccccc32)cc1OC` [Example 158, 10-[(2,2′-Dimethoxy[1,1′-biphenyl]-4-yl)carbonyl]-N-[2-(1-piperidinyl)ethyl]-10,11-dihydro-5H-pyrrolo[2,1-c][1,4]benzodiazepine-3-carboxamide] yielded an inhibition at 0.1 µM of 16%.
`COc1cccc(-c2ccc(C(=O)N3Cc4ccc(C(=O)NCCN5CCCCC5)n4Cc4ccccc43)cc2OC)c1` [Example 159, 10-[(2,3′-Dimethoxy[1,1′-biphenyl]-4-yl)carbonyl]-N-[2-(1-piperidinyl)ethyl]-10,11-dihydro-5H-pyrrolo[2,1-c][1,4]benzodiazepine-3-carboxamide] was tested, and the inhibition at 0.1 µM was 44%.
`O=C(NCCN1CCCCC1)c1ccc2n1Cc1ccccc1N(C(=O)c1ccc(-c3cccc4ccccc34)cc1Cl)C2` [Example 160, 10-[2-Chloro-4-(1-naphthyl)benzoyl]-N-[2-(1-piperidinyl)ethyl]-10,11-dihydro-5H-pyrrolo[2,1-c][1,4]benzodiazepine-3-carboxamide] was tested, and the inhibition at 0.1 µM was 6%.
`Cc1cc(C(=O)N2Cc3ccc(C(=O)NCCN4CCCCC4)n3Cc3ccccc32)ccc1-c1ccccc1C(F)(F)F` [Example 161, 10-{[2-Methyl-2′-(trifluoromethyl)[1,1′-biphenyl]-4-yl]carbonyl}-N-[2-(1-piperidinyl)ethyl]-10,11-dihydro-5H-pyrrolo[2,1-c][1,4]benzodiazepine-3-carboxamide] was tested, and the inhibition at 0.1 µM was 8%.
For `COc1ccccc1-c1ccc(C(=O)N2Cc3ccc(C(=O)NCCC4CCCN4C)n3Cc3ccccc32)cc1C` (centres unmarked) [Example 162, 10-[(2′-Methoxy-2-methyl[1,1′-biphenyl]-4-yl)carbonyl]-N-[2-(1-methyl-2-pyrrolidinyl)ethyl]-10,11-dihydro-5H-pyrrolo[2,1-c][1,4]benzodiazepine-3-carboxamide], the inhibition at 0.1 µM was 18%.
With `Cc1ccccc1-c1ccc(C(=O)N2Cc3ccc(C(=O)NCCC4CCCN4C)n3Cc3ccccc32)cc1C` (centres unmarked) [Example 163, 10-[(2,2′-Dimethyl[1,1′-biphenyl]-4-yl)carbonyl]-N-[2-(1-methyl-2-pyrrolidinyl)ethyl]-10,11-dihydro-5H-pyrrolo[2,1-c][1,4]benzodiazepine-3-carboxamide] the inhibition at 0.1 µM was 43%.
For `COc1ccccc1-c1ccc(C(=O)N2Cc3ccc(C(=O)NCCC4CCCN4C)n3Cc3ccccc32)cc1` (centres unmarked) [Example 165, 10-[(2′-Methoxy[1,1′-biphenyl]-4-yl)carbonyl]-N-[2-(1-methyl-2-pyrrolidinyl)ethyl]-10,11-dihydro-5H-pyrrolo[2,1-c][1,4]benzodiazepine-3-carboxamide], the inhibition at 0.1 µM was 24%.
Compound `Cc1ccccc1-c1ccc(C(=O)N2Cc3ccc(C(=O)NCCC4CCCN4C)n3Cc3ccccc32)cc1` (centres unmarked) [Example 166, 10-[(2′-Methyl[1,1′-biphenyl]-4-yl)carbonyl]-N-[2-(1-methyl-2-pyrrolidinyl)ethyl]-10,11-dihydro-5H-pyrrolo[2,1-c][1,4]benzodiazepine-3-carboxamide] has an inhibition at 0.1 µM of 29%.
Work on `COc1cc(C(=O)N2Cc3ccc(C(=O)NCCC4CCCN4C)n3Cc3ccccc32)ccc1-c1ccccc1C` (centres unmarked) [Example 167, 10-[(2-Methoxy-2′-methyl[1,1′-biphenyl]-4-yl)carbonyl]-N-[2-(1-methyl-2-pyrrolidinyl)ethyl]-10,11-dihydro-5H-pyrrolo[2,1-c][1,4]benzodiazepine-3-carboxamide] yielded an inhibition at 0.1 µM of 50%.
With `COc1cc(-c2ccccc2C)c(Cl)cc1C(=O)N1Cc2ccc(C(=O)NCCC3CCCN3C)n2Cc2ccccc21` (centres unmarked) [Example 168, 10-[(6-Chloro-3-methoxy-2′-methyl[1,1′-biphenyl]-4-yl)carbonyl]-N-[2-(1-methyl-2-pyrrolidinyl)ethyl]-10,11-dihydro-5H-pyrrolo[2,1-c][1,4]benzodiazepine-3-carboxamide] the inhibition at 0.1 µM was 8%.
`COc1cccc(-c2cc(OC)c(C(=O)N3Cc4ccc(C(=O)NCCC5CCCN5C)n4Cc4ccccc43)cc2Cl)c1` (centres unmarked) [Example 169, 10-[(6-Chloro-3,3′-dimethoxy[1,1′-biphenyl]-4-yl)carbonyl]-N-[2-(1-methyl-2-pyrrolidinyl)ethyl]-10,11-dihydro-5H-pyrrolo[2,1-c][1,4]benzodiazepine-3-carboxamide] gave an inhibition at 0.1 µM of 9%.
`COc1cc(C(=O)N2Cc3ccc(C(=O)NCCC4CCCN4C)n3Cc3ccccc32)ccc1-c1cccc2ccccc12` (centres unmarked) [Example 170, 10-[3-Methoxy-4-(1-naphthyl)benzoyl]-N-[2-(1-methyl-2-pyrrolidinyl)ethyl]-10,11-dihydro-5H-pyrrolo[2,1-c][1,4]benzodiazepine-3-carboxamide] showed an inhibition at 0.1 µM of 21%.
`COc1ccccc1-c1ccc(C(=O)N2Cc3ccc(C(=O)NCCC4CCCN4C)n3Cc3ccccc32)cc1OC` (centres unmarked) [Example 171, 10-[(2,2′-Dimethoxy[1,1′-biphenyl]-4-yl)carbonyl]-N-[2-(1-methyl-2-pyrrolidinyl)ethyl]-10,11-dihydro-5H-pyrrolo[2,1-c][1,4]benzodiazepine-3-carboxamide] gave an inhibition at 0.1 µM of 14%.
With `COc1cccc(-c2ccc(C(=O)N3Cc4ccc(C(=O)NCCC5CCCN5C)n4Cc4ccccc43)cc2OC)c1` (centres unmarked) [Example 172, 10-[(2,3′-Dimethoxy[1,1′-biphenyl]-4-yl)carbonyl]-N-[2-(1-methyl-2-pyrrolidinyl)ethyl]-10,11-dihydro-5H-pyrrolo[2,1-c][1,4]benzodiazepine-3-carboxamide] the inhibition at 0.1 µM was 43%.
For `CN1CCCC1CCNC(=O)c1ccc2n1Cc1ccccc1N(C(=O)c1ccc(-c3cccc4ccccc34)cc1Cl)C2` (centres unmarked) [Example 173, 10-[2-Chloro-4-(1-naphthyl)benzoyl]-N-[2-(1-methyl-2-pyrrolidinyl)ethyl]-10,11-dihydro-5H-pyrrolo[2,1-c][1,4]benzodiazepine-3-carboxamide], the inhibition at 0.1 µM was 0%.
`Cc1cc(C(=O)N2Cc3ccc(C(=O)NCCC4CCCN4C)n3Cc3ccccc32)ccc1-c1ccccc1C(F)(F)F` (centres unmarked) [Example 174, N-[2-(1-Methyl-2-pyrrolidinyl)ethyl]-10-{[2-methyl-2′-(trifluoromethyl)[1,1′-biphenyl]-4-yl]carbonyl}-10,11-dihydro-5H-pyrrolo[2,1-c][1,4]benzodiazepine-3-carboxamide] was tested, and the inhibition at 0.1 µM was 8%.
`COc1ccccc1-c1ccc(C(=O)N2Cc3ccc(C(=O)N(C)C4CCN(C)CC4)n3Cc3ccccc32)cc1C` [Example 175, 10-[(2′-Methoxy-2-methyl[1,1′-biphenyl]-4-yl)carbonyl]-N-methyl-N-(1-methyl-4-piperidinyl)-10,11-dihydro-5H-pyrrolo[2,1-c][1,4]benzodiazepine-3-carboxamide] was tested, and the inhibition at 0.1 µM was 28%.
Work on `COc1cccc(-c2ccc(C(=O)N3Cc4ccc(C(=O)N(C)C5CCN(C)CC5)n4Cc4ccccc43)cc2C)c1` [Example 176, 10-[(3′-Methoxy-2-methyl[1,1′-biphenyl]-4-yl)carbonyl]-N-methyl-N-(1-methyl-4-piperidinyl)-10,11-dihydro-5H-pyrrolo[2,1-c][1,4]benzodiazepine-3-carboxamide] yielded an inhibition at 0.1 µM of 27%.
In the case of `COc1ccccc1-c1ccc(C(=O)N2Cc3ccc(C(=O)N(C)C4CCN(C)CC4)n3Cc3ccccc32)cc1` [Example 177, 10-[(2′-Methoxy[1,1′-biphenyl]-4-yl)carbonyl]-N-methyl-N-(1-methyl-4-piperidinyl)-10,11-dihydro-5H-pyrrolo[2,1-c][1,4]benzodiazepine-3-carboxamide], the inhibition at 0.1 µM is reported as 42%.
In the case of `Cc1ccccc1-c1ccc(C(=O)N2Cc3ccc(C(=O)N(C)C4CCN(C)CC4)n3Cc3ccccc32)cc1` [Example 178, N-Methyl-10-[(2′-methyl[1,1′-biphenyl]-4-yl)carbonyl]-N-(1-methyl-4-piperidinyl)-10,11-dihydro-5H-pyrrolo[2,1-c][1,4]benzodiazepine-3-carboxamide], the inhibition at 0.1 µM is reported as 79%.

Source: US7109193B2, “Tricyclic diazepines tocolytic oxytocin receptor antagonists” (Wyeth, priority 2001, dated 2006)
